Reference: US20210275657A1, “NEOANTIGENS AND USES THEREOF” (BioNTech US Inc., priority 2018, published 2021)
Where two headings read alike, the source gives them in different places. Where no end group is shown, it is not given here.

Conditions: for Solubility in […] SS in D5W w/ 4% DMSO: […] sodium succinate in D5W; for Solubility in […] SS in D5W w/ 4% DMSO / Solubility in […] SS in D5W w/o DMSO / Solubility in 0.5 mM SS in D5W w/ 4% DMSO: no polyICLC; for solubility: without DMSO, after 6 hours; for solubility in 5 mM SS: 5 mM SS (higher SS concentration) in D5W; for Solubility in […] SS in D5W w/o DMSO / Solubility in Poly ICLC + […] SS in D5W w/o DMSO / Solubility in Poly ICLC + 5 mM SS in D5W w/o DMSO: no DMSO; for Solubility in 0.5 mM SS in D5W w/ 4% DMSO: 0.5 mM sodium succinate in D5W

Sequence	Solubility in […] SS in D5W w/ 4% DMSO (4% DMSO)	Solubility in Poly ICLC + […] SS in D5W w/ 4% DMSO (with polyICLC, 4% DMSO)	solubility (0.4 mg/mL in […] SS)	solubility in 5 mM SS	Solubility in […] SS in D5W w/o DMSO	Solubility in Poly ICLC + […] SS in D5W w/o DMSO (with polyICLC)	Solubility in 0.5 mM SS in D5W w/ 4% DMSO (4% DMSO)	further results
ESKIMFATLQRSSLWC [Peptide L11g]	Yes	No						
FLKAESKIMFATLQRS [Peptide L11f]	Yes		soluble	not soluble	Yes	Yes		solubility in low SS (lower SS concentration ([…] SS/D5W)): soluble
FLKAESKIMFATLQRSSLWCL [Peptide 11]		No						
GPPARVPAVPFDLHFCRSSIMKPKRD [Peptide 8]	Yes	Yes			Yes	Yes	Yes	Solubility in Poly ICLC + 0.5 mM SS in D5W w/ 4% DMSO (with polyICLC, 0.5 mM SS in D5W, 4% DMSO): Yes; Solubility in Poly ICLC + 5 mM SS in D5W w/o DMSO (with polyICLC): Yes
GPPARVPAVPFDLHFCRSSIMKPKRD [Peptide L8]			soluble	soluble				solubility (5 mM SS): soluble
KAESKIMFATLQRSSLWCL [Peptide 11d]	Yes				Yes	Yes	Yes	
KAESKIMFATLQRSSLWCL [Peptide L11d]			soluble					
KPKRDGYMFLKAESKI [Peptide L10c]	Yes		soluble	soluble	Yes	Yes		solubility (5 mM SS): soluble; Solubility in Poly ICLC + 5 mM SS in D5W w/ 4% DMSO (with polyICLC, 4% DMSO): Yes; Solubility in Poly ICLC + 5 mM SS in D5W w/o DMSO (with polyICLC): Yes
KPKRDGYMFLKAESKIMFAT [Peptide 10b]	Yes	No					Yes	
KPKRDGYMFLKAESKIMFATLQR [Peptide 10]	Yes	No						Solubility in Poly ICLC + 5 mM SS in D5W w/ 4% DMSO (with polyICLC, 4% DMSO): No
LHFCRSSIMKPKRDGYMFLKAESKI [Peptide 9]	Yes	Yes			Yes		Yes	Solubility in Poly ICLC + 5 mM SS in D5W w/o DMSO (with polyICLC): Yes
LHFCRSSIMKPKRDGYMFLKAESKI [Peptide L9]			soluble	soluble				solubility (5 mM SS): soluble
YMFLKAESKIMFATLQRSS [Peptide 11c]	Yes	No					Yes	
